For data set [1] the following is noted: cited from earlier work.
Data set [2] can be described thus: Solubility in RO water at room temperature (25° C.) within 5 minutes, soluble if <10 FAU turbidity. The class given is physicochemical. The following applies: crystalline material. How it is done:
Hereinafter, unless specified otherwise, the solubility of material is determined in RO (reverse osmosis) water at room temperature (25° C.) within 5 minutes.
Hereinafter, where the solubility is expressed as “%”, it to be understood as number of grams of material soluble in 100 grams of solvent.
Hereinafter, the descriptive terms for solubility are provided according to definitions in Combined Compendium of Food Additive Specifications Vol. 4 (FAO JECFA Monographs 1, Rome 2006, page 41).
Procedure: Unless otherwise specified, transfer a known amount of the sample into a flask containing known amount of the specified solvent, shake for no less than 30 sec and no more than 5 min.”
The material is deemed soluble at certain concentration if the produced solution has <10 FAU (Formazin Attenuation Unit) turbidity value.

For data set [3] the following is noted: cited from earlier work; for water solubility at room temperature: pure (>95% w/w) compound, room temperature (25° C.); for solubility (in words): water.

Where two headings read alike, the source gives them in different places.

Consider `C=C1C[C@@]23CC[C@H]4[C@@](C)(CCC[C@@]4(C)C(=O)O[C@@H]4O[C@H](CO)[C@@H](O)[C@H](O)[C@H]4O)[C@@H]2CC[C@]1(O[C@@H]1O[C@H](CO)[C@@H](O)[C@H](O[C@@H]2O[C@H](CO)[C@@H](O)[C@H](O)[C@H]2O)[C@H]1O[C@@H]1O[C@H](CO)[C@@H](O)[C@H](O)[C@H]1O)C3` [Form 2, Rebaudioside A], for which, in data set [1], the “Rate of dissolution in H2O at 25° C. (descriptive)” value (from here on “Rate of dissolution … (descriptive)”) is on record as “Intermediate”. Besides, in data set [1] (in 5 minutes), the “Rate of dissolution in H2O at 25° C.” value is “(<30% in 5”.
For the molecule `C=C1C[C@@]23CC[C@H]4[C@@](C)(CCC[C@@]4(C)C(=O)O[C@@H]4O[C@H](CO)[C@@H](O)[C@H](O)[C@H]4O[C@@H]4O[C@H](CO)[C@@H](O)[C@H](O)[C@H]4O)[C@@H]2CC[C@]1(O[C@@H]1O[C@H](CO)[C@@H](O)[C@H](O[C@@H]2O[C@H](CO)[C@@H](O)[C@H](O)[C@H]2O)[C@H]1O[C@@H]1O[C@H](CO)[C@@H](O)[C@H](O)[C@H]1O)C3` [Rebaudioside D], the “solubility, JECFA descriptive term” value in data set [2] is “very slightly soluble”. Besides, in data set [3], the “water solubility at room temperature” value is “less than 0.05%” and the “solubility (in words)” value is listed as “very low water solubility”.
As to `C=C1C[C@@]23CC[C@H]4[C@@](C)(CCC[C@@]4(C)C(=O)O[C@@H]4O[C@H](CO)[C@@H](O)[C@H](O[C@@H]5O[C@H](CO)[C@@H](O)[C@H](O)[C@H]5O)[C@H]4O[C@@H]4O[C@H](CO)[C@@H](O)[C@H](O)[C@H]4O)[C@@H]2CC[C@]1(O[C@@H]1O[C@H](CO)[C@@H](O)[C@H](O[C@@H]2O[C@H](CO)[C@@H](O)[C@H](O)[C@H]2O)[C@H]1O[C@@H]1O[C@H](CO)[C@@H](O)[C@H](O)[C@H]1O)C3` [Rebaudioside M], the “solubility, JECFA descriptive term” value in data set [2] was “very slightly soluble”. For the same molecule, in data set [3], the “water solubility at room temperature” value was “about 0.1%” and the “solubility (in words)” value was “very low water solubility”. Further, in data set [3] (listed as rebaudioside M), the “solubility (in words)” value is on record as “poor aqueous solubility”.
For `C=C1C[C@@]23CC[C@H]4[C@@](C)(CCC[C@@]4(C)C(=O)O[C@@H]4O[C@H](CO)[C@@H](O)[C@H](O)[C@H]4O)[C@@H]2CC[C@]1(O[C@@H]1O[C@H](CO)[C@@H](O)[C@H](O[C@@H]2O[C@H](CO)[C@@H](O)[C@H](O)[C@H]2O)[C@H]1O[C@@H]1O[C@H](CO)[C@@H](O)[C@H](O)[C@H]1O)C3` [Form 3, Rebaudioside A], the “Rate of dissolution … (descriptive)” value in data set [1] is given as “High”. For the same molecule, the “Rate of dissolution in H2O at 25° C.” value in data set [1] (in 5 minutes) is listed as “(>30% in”.
In the case of `C=C1C[C@@]23CC[C@H]4[C@@](C)(CCC[C@@]4(C)C(=O)O[C@@H]4O[C@H](CO)[C@@H](O)[C@H](O)[C@H]4O)[C@@H]2CC[C@]1(O[C@@H]1O[C@H](CO)[C@@H](O)[C@H](O[C@@H]2O[C@H](CO)[C@@H](O)[C@H](O)[C@H]2O)[C@H]1O[C@@H]1O[C@H](CO)[C@@H](O)[C@H](O)[C@H]1O)C3` [Form 4, Rebaudioside A], the “Rate of dissolution … (descriptive)” value in data set [1] was “High”. Besides, the “Rate of dissolution in H2O at 25° C.” value in data set [1] (in 5 minutes) was “(>35% in”. The “solubility (in words)” value in data set [3] (listed as rebaudioside A amorphous forms) is reported as “high solubility”.
Turning to `C=C1C[C@@]23CC[C@H]4[C@@](C)(CCC[C@@]4(C)C(=O)O[C@@H]4O[C@H](CO)[C@@H](O)[C@H](O)[C@H]4O)[C@@H]2CC[C@]1(O[C@@H]1O[C@H](CO)[C@@H](O)[C@H](O[C@@H]2O[C@H](CO)[C@@H](O)[C@H](O)[C@H]2O)[C@H]1O[C@@H]1O[C@H](CO)[C@@H](O)[C@H](O)[C@H]1O)C3` [Form 1, Rebaudioside A], the “Rate of dissolution … (descriptive)” value in data set [1] is recorded as “Very low”. Moreover, the “Rate of dissolution in H2O at 25° C.” value in data set [1] (in 60 minutes) is given as “(<0.2% in 60”. Moreover, the “solubility (in words)” value in data set [3] (listed as hydrate form of Rebaudioside A) was “lowest solubility”.

These data come from patent US11149050B2, “Highly soluble steviol glycosides” (PureCircle USA Inc., priority 2016, dated 2021).
